Active and inactive are the calls of the source. No cut-off for these calls is given here.

The species named for the first assay is Bos taurus. Nature of the assay: Binding affinity to bovine heart NADH-Q1 oxidoreductase (complex 1) oxidase activity using submitochondrial particle as source of enzyme using [125I]-(S)-2-{[(tert-butyldiphenylsilyl)oxy]methyl}-1-{[3-(hexyloxy)propyl]sulfonyl}pyrrolidine by SDS-PAGE analysis. To be noted: Mitochondria.
`CCCCCCCCCCS(=O)(=O)N1CCC[C@H]1COCOC[C@@H]1CCCN1S(=O)(=O)CCCOc1ccc(I)cc1`: the outcome was Active.
On the same count and under the same terms, with `O=S(=O)(CCCOc1ccc(I)cc1)N1CCC[C@H]1COCOC[C@@H]1CCCN1S(=O)(=O)CCCOc1ccc(I)cc1` the entry was “Active”.

Target in a further assay: not listed separately
Nature of the assay: Inhibition of bovine heart succinate-cytochrome c oxidoreductase activity using submitochondrial particle as source of enzyme measured after 4 mins. It is filed as mitochondria, Bos taurus, Mitochondria.
Details: not given
A word on the IC50: it is the point on the concentration scale where inhibition reaches its midpoint. Read a low IC50 as greater potency. Compound `CCCCCCCCCCS(=O)(=O)N1CCC[C@H]1COCOC[C@@H]1CCCN1S(=O)(=O)CCCOc1ccc(I)cc1` yielded an IC50 of over 20000 nM.
As to `O=S(=O)(CCCOc1ccc(I)cc1)N1CCC[C@H]1COCOC[C@@H]1CCCN1S(=O)(=O)CCCOc1ccc(I)cc1`, the IC50 is over 20000 nM.

Target in the next assay: not listed separately
Nature of the assay: Inhibition of bovine heart NADH-Q1 oxidoreductase (complex 1) oxidase activity using submitochondrial particle as source of enzyme measured after 4 mins. It is filed as mitochondria, Bos taurus, Mitochondria.
Details: not given
Turning to `CCCCCCCCCCS(=O)(=O)N1CCC[C@H]1COCOC[C@@H]1CCCN1S(=O)(=O)CCCOc1ccc(I)cc1`, the IC50 is 40 nM.
Still for that read-out and setting: in the case of `O=S(=O)(CCCOc1ccc(I)cc1)N1CCC[C@H]1COCOC[C@@H]1CCCN1S(=O)(=O)CCCOc1ccc(I)cc1` it was 26 nM.

Target in the next assay: not listed separately
The assay is described as follows: Inhibition of bovine heart NADH oxidase activity using submitochondrial particle as source of enzyme measured after 4 mins.
Details: not given
Type of assay: mitochondria, Bos taurus, Mitochondria.
`O=S(=O)(CCCOc1ccccc1)N1CCC[C@H]1COCOC[C@@H]1CCCN1S(=O)(=O)CCCOc1ccccc1` yielded an IC50 of 2400 nM.
Compound `Cc1ccc(S(=O)(=O)N2CCC[C@H]2CO)cc1` returned an IC50 of over 230000 nM.
As for `Cc1ccc(S(=O)(=O)N2CCC[C@@H]2COCOC[C@H]2CCCN2S(=O)(=O)c2ccc(C)cc2)cc1`, the IC50 was found to be 3100 nM.
The same measure, in the same setting: with `CCCCCCCCCCS(=O)(=O)N1CCC[C@H]1COCOC[C@@H]1CCCN1S(=O)(=O)CCCCCCCCCC` the figure was 88 nM; with `Cc1ccc(OCCCS(=O)(=O)N2CCC[C@H]2COCOC[C@@H]2CCCN2S(=O)(=O)CCCOc2ccc(C)cc2)cc1`, 270 nM.
On the same count and under the same terms, in the case of `CCCCCCCCCCS(=O)(=O)N1CCC[C@H]1COCOC[C@@H]1CCCN1S(=O)(=O)CCCOc1ccc(I)cc1` it was 17 nM; in that of `CCCCCCCCCCS(=O)(=O)N1CCC[C@H]1COCOC[C@@H]1CCCN1S(=O)(=O)CCCOCCCCCC`, 48 nM; in that of `CC1(CCCCCCCCS(=O)(=O)N2CCC[C@H]2COCOC[C@@H]2CCCN2S(=O)(=O)CCCOc2ccc(I)cc2)N=N1`, 16 nM.
In the case of `CCCCCCCCc1ccc(S(=O)(=O)N2CCC[C@H]2COCOC[C@@H]2CCCN2S(=O)(=O)c2ccc(CCCCCCCC)cc2)cc1`, half-maximal inhibition (IC50) was put at 3400 nM. This IC50 lies about 210-fold higher than the previous one.
Still for that read-out and setting: in the case of `Cc1ccc(S(=O)(=O)N2[C@H](COCOC[C@@H]3C[C@@H]4CCCC[C@@H]4N3S(=O)(=O)c3ccc(C)cc3)C[C@@H]3CCCC[C@@H]32)cc1` it was 5800 nM; in that of `CCCCCc1ccc(S(=O)(=O)N2CCC[C@H]2COCOC[C@@H]2CCCN2S(=O)(=O)c2ccc(CCCCC)cc2)cc1`, 150 nM; in that of `Cc1ccc(S(=O)(=O)N2CC[C@@H](OCO[C@@H]3CCN(S(=O)(=O)c4ccc(C)cc4)C3)C2)cc1`, 31000 nM.
Same read-out and setting: with `O=S(=O)(c1ccccc1)N1CCC[C@H]1COCOC[C@@H]1CCCN1S(=O)(=O)c1ccccc1` the figure was 4100 nM.
`Cc1ccc(S(=O)(=O)N2CCC[C@@H]2COCOC[C@@H]2CCCN2S(=O)(=O)c2ccc(C)cc2)cc1` gave an IC50 of 810 nM.
Compound `Cc1ccc(S(=O)(=O)N2CCC[C@H]2COCOCc2ccccc2)cc1` showed an IC50 of 4600 nM.
Still for that read-out and setting: with `O=S(=O)(c1ccc(Cl)cc1)N1CCC[C@H]1COCOC[C@@H]1CCCN1S(=O)(=O)c1ccc(Cl)cc1` the figure was 1100 nM.
`Cc1ccc(C(=O)N2CCC[C@H]2COCOC[C@@H]2CCCN2C(=O)c2ccc(C)cc2)cc1`: the IC50 is 5000 nM. This IC50 is about 4.5-fold higher than that of the compound before.
For the compound `CCCCCCc1ccc(S(=O)(=O)N2CCC[C@H]2COCOC[C@@H]2CCCN2S(=O)(=O)c2ccc(CCCCCC)cc2)cc1`, the IC50 was 98 nM.
Still for that read-out and setting: with `CCCCCCCc1ccc(S(=O)(=O)N2CCC[C@H]2COCOC[C@@H]2CCCN2S(=O)(=O)c2ccc(CCCCCCC)cc2)cc1` the figure was 3600 nM; with `CCCCCCCCCCCCS(=O)(=O)N1CCC[C@H]1COCOC[C@@H]1CCCN1S(=O)(=O)CCCCCCCCCCCC`, 6500 nM.
`CCCCCCCCCCS(=O)(=O)N1CCC[C@H]1COCOC[C@@H]1CCCN1S(=O)(=O)CCCOc1ccc(C)cc1`: the IC50 came to 72 nM. This IC50 lies about 90-fold lower than the previous one.
Same read-out and setting: with `Cc1ccc(S(=O)(=O)N2CCC[C@H]2CCOCOCC[C@@H]2CCCN2S(=O)(=O)c2ccc(C)cc2)cc1` the figure was 620 nM; with `Cc1ccc(S(=O)(=O)N2CCC[C@H]2COCOCCCc2ccccc2)cc1`, 1100 nM; with `Cc1ccc(S(=O)(=O)N2CC[C@H]2COCOC[C@@H]2CCN2S(=O)(=O)c2ccc(C)cc2)cc1`, 870 nM.
In the case of `CCCCc1ccc(S(=O)(=O)N2CCC[C@H]2COCOC[C@@H]2CCCN2S(=O)(=O)c2ccc(CCCC)cc2)cc1`, the IC50 is 140 nM. Compared with the last compound, the IC50 is about 6.2-fold lower.
Turning to `CCCCCCCCCCS(=O)(=O)N1CCC[C@H]1COCOC[C@@H]1CCCN1S(=O)(=O)CCCOc1ccccc1`, the IC50 is 150 nM.
Still for that read-out and setting: with `Cc1ccc(S(=O)(=O)N2CC[C@@H](COCOC[C@@H]3CCN(S(=O)(=O)c4ccc(C)cc4)C3)C2)cc1` the figure was 1300 nM.
Still for that read-out and setting: with `CCCCCCOCCCS(=O)(=O)N1CCC[C@H]1COCOC[C@@H]1CCCN1S(=O)(=O)CCCOCCCCCC` the figure was 260 nM.
Still for that read-out and setting: with `Cc1ccc(S(=O)(=O)N2CCC[C@H]2COCOC[C@@H]2CCCN2S(=O)(=O)c2ccc(C)cc2)cc1` the figure was 890 nM; with `COc1ccc(S(=O)(=O)N2CCC[C@H]2COCOC[C@@H]2CCCN2S(=O)(=O)c2ccc(OC)cc2)cc1`, 4400 nM.
Consider `COCOC[C@@H]1CCCN1S(=O)(=O)c1ccc(C)cc1`, for which the IC50 amounted to 85000 nM.
The compound `Cc1ccc(S(=O)(=O)N(C)CCOCOCCN(C)S(=O)(=O)c2ccc(C)cc2)cc1` yielded an IC50 of 6400 nM.
In turn, `Cc1ccc(S(=O)(=O)N2CCCC[C@H]2COCOC[C@@H]2CCCCN2S(=O)(=O)c2ccc(C)cc2)cc1` showed an IC50 of 2600 nM.
The same measure, in the same setting: with `CCCCCCCCS(=O)(=O)N1CCC[C@H]1COCOC[C@@H]1CCCN1S(=O)(=O)CCCCCCCC` the figure was 360 nM.
`O=S(=O)(CCCOc1ccc(I)cc1)N1CCC[C@H]1COCOC[C@@H]1CCCN1S(=O)(=O)CCCOc1ccc(I)cc1` registered an IC50 of 14 nM.
